{"source": "paper PMC10700596", "about": "(Nature Communications, 2023)", "key": {"[1]": {"target": "T1, prostaglandin D2 (PGD2) receptor (Homo sapiens, UniProt Q9Y5Y4)", "T1 sequence (Q9Y5Y4 1-395)": "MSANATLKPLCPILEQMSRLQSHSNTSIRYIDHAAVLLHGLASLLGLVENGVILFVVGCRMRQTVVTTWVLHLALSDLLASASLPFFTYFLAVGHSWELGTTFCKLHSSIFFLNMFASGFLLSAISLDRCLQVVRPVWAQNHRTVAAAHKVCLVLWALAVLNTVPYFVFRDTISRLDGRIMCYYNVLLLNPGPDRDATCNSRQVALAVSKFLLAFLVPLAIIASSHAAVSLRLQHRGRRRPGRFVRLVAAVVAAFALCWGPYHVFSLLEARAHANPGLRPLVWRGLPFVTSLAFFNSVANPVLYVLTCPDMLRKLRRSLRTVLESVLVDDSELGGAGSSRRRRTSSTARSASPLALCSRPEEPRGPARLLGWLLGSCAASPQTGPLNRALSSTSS", "test": "Functional cAMP production assay, PGD2 receptor", "assay_type": "cell-based", "settings": "replicate values"}, "EP4R [2]": {"target": "T2, EP4R (Homo sapiens, UniProt P35408)", "T2 construct": "Tango fusion cassette (only 'tango' is printed); expressed in transfected cells; host or cells: HTLA cells (tTA-dependent luciferase reporter, β-arrestin2-TEV fusion)", "test": "biochemical", "assay_type": "binding"}, "EP4R [3]": {"target": "T2, EP4R", "test": "PRESTO-Tango β-arrestin2 recruitment assay", "assay_type": "cell-based"}, "wild-type EP4R": {"target": "wild-type EP4R (Homo sapiens, UniProt P35408)", "sequence (P35408 whole entry)": "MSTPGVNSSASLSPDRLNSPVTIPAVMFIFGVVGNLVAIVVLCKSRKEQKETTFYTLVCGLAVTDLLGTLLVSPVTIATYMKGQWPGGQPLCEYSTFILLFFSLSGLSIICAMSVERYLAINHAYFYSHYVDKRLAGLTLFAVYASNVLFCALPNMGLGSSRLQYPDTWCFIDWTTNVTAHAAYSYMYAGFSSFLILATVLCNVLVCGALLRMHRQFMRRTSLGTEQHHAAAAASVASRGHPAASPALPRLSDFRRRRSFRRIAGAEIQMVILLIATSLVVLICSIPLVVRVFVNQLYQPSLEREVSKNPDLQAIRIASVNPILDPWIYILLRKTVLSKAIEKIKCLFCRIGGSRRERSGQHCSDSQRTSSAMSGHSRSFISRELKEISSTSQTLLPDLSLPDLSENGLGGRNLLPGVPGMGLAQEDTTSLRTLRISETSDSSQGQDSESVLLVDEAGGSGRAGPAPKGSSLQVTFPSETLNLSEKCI", "test": "cell-based"}, "EP4R [4]": {"target": "T2, EP4R", "test": "cell-based"}, "EP4R R316A mutant": {"target": "T3, EP4R R316A mutant (Homo sapiens, UniProt P35408, R316A)", "T3 construct": "expressed in transfected cells; host or cells: HEK cells, transient", "T3 sequence (P35408 whole entry R316A)": "as the sequence (P35408 whole entry) above, with R316A counted along it", "test": "BRET EP4R-arrestin interaction reporter assay, R316A mutant", "assay_type": "cell-based", "settings": "agonist mode", "source_text": "three independent experiments. Source data are provided as a Source Data file.\n(1 picture or pasted object on this page, not shown here)"}}, "note": "Where “and” joins values, the source holds several entries; their conditions need not be identical. Identical values can stand only once.", "data": [{"smiles": "CCCCC[C@H](O)/C=C/[C@H]1C(=O)C[C@H](O)[C@@H]1C/C=C\\CCCC(=O)O", "note": "[PGD2]", "values": [{"measurement": "Prostaglandin D2 receptor response, drug alone", "setting": "[1]; Log[Drug] -7", "result": "0.6033 and 0.644 and 0.6961 and 0.6919"}, {"measurement": "Prostaglandin D2 receptor response, drug alone", "setting": "[1]; Log[Drug] -7.52", "result": "0.797 and 0.93 and 0.9088 and 0.9243 and 0.8431 and 0.8125 and 0.8754 and 0.8197 and 0.9698 and 0.7088 and 0.7525 and 0.7962"}, {"measurement": "Prostaglandin D2 receptor response, drug alone", "setting": "[1]; Log[Drug] -8", "result": "0.9354 and 1 and 1.006 and 1.122 and 0.9207 and 0.9404 and 0.8901 and 0.9489 and 0.8787 and 1.018 and 0.7261 and 1.1394"}, {"measurement": "Prostaglandin D2 receptor response, drug alone", "setting": "[1]; Log[Drug] -8.52", "result": "0.9328 and 0.9897 and 1.022 and 0.9062 and 0.7756 and 1.181 and 0.8387 and 1.0826 and 1.099 and 1.025 and 0.9559 and 0.8192"}, {"measurement": "Prostaglandin D2 receptor response, drug alone", "setting": "[1]; Log[Drug] -9", "result": "1.112 and 0.9671 and 1.1328 and 0.9787 and 1.031 and 1.15 and 0.9594 and 0.9527 and 0.952 and 0.9619 and 1.007 and 0.8917"}, {"measurement": "Prostaglandin D2 receptor response, drug alone", "setting": "[1]; Log[Drug] -9.52", "result": "0.8441 and 1.142 and 1.077 and 0.9738 and 0.9345 and 0.9535 and 0.9143 and 1.094 and 0.8709 and 1.005 and 0.9652 and 0.9465"}, {"measurement": "Prostaglandin D2 receptor response, drug alone", "setting": "[1]; Log[Drug] -10", "result": "1.003 (2×) and 1.01 (2×) and 1.029 and 0.9872 and 0.9954 and 1.0644 and 0.8654 and 0.9098 and 1.022 and 1.061"}, {"measurement": "Prostaglandin D2 receptor response, drug alone", "setting": "[1]; Log[Drug] -10.52", "result": "0.9812 and 1.108 and 1.015 and 0.9787 and 0.8969 and 1.051 and 1.01 and 0.8703 and 1.02 and 1.075 and 0.9632 and 0.9209"}, {"measurement": "Prostaglandin D2 receptor response, drug alone", "setting": "[1]; Log[Drug] -11", "result": "0.9785 and 0.8795 and 0.9671 and 1.005 and 0.997 and 1.114 and 0.9736 and 1.021 and 1.027 and 1.076 and 1.172 and 1.01"}]}, {"smiles": "Cc1cc(C(=O)N[C@H]2CC[C@H](C(=O)O)CCC2(F)F)c(C)n1-c1ccccc1", "note": "[Compound 83, CC1=CC(C(=O)N[C@H]2CC[C@@H](CCC2(F)F)C(=O)O)=C(C)N1C=3C=CC=CC3]", "values": [{"measurement": "Ki", "setting": "EP4R [2]", "result": "> 10", "unit": "µM"}, {"measurement": "PRESTO-Tango -logIC50", "setting": "EP4R [3]", "result": "unstable"}, {"measurement": "IC50", "setting": "EP4R [3]; PRESTO-Tango IC50 (nM)", "result": "> 10000", "unit": "nM"}, {"measurement": "IC50", "setting": "wild-type EP4R", "result": 3.39, "unit": "µM"}, {"measurement": "Ki", "setting": "wild-type EP4R", "result": 0.678, "unit": "µM"}, {"measurement": "Kb", "setting": "EP4R [4]", "result": "> 10", "unit": "µM"}]}, {"smiles": "CCCCC[C@H](O)/C=C/[C@H]1[C@H](O)CC(=O)[C@@H]1C/C=C\\CCCC(=O)O", "note": "[PGE2, prostaglandin E2, reference compound]", "values": [{"measurement": "EC80 of PGE2", "setting": "EP4R [3]; agonist", "result": 0.008, "unit": "µM"}, {"measurement": "EC80 of PGE2", "setting": "wild-type EP4R", "result": 0.008, "unit": "µM"}, {"measurement": "activation of R316A mutant receptor", "setting": "EP4R R316A mutant", "result": "no longer"}]}]}
